{"source": "paper PMC6522912", "about": "“Evaluation of the published kinase inhibitor set to identify multiple inhibitors of bacterial ATP-dependent mur ligases” (Journal of Enzyme Inhibition and Medicinal Chemistry, 2019)", "key": {"E. coli MurC": {"target": "E. coli MurC (Escherichia coli, UniProt P17952)", "sequence (P17952 whole entry)": "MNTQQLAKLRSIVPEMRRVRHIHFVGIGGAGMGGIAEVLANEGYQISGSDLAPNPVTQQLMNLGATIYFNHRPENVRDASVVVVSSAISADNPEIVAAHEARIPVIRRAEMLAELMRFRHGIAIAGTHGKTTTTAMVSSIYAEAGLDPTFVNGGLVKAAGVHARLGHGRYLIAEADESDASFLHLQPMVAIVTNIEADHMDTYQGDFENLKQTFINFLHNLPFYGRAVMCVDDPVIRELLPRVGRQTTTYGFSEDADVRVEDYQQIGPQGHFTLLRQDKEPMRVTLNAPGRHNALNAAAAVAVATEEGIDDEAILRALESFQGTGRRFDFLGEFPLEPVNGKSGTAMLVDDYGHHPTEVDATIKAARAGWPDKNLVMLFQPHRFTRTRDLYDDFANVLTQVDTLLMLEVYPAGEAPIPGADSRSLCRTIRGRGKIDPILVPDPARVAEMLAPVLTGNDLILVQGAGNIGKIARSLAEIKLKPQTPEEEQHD", "assay": "Malachite green inhibition assay, MurC", "assay_type": "biochemical", "conditions": "0.25 h", "protocol": "(§1) Inhibition of the Mur ligases was determined using the malachite green assay, with slight modifications.\n(§2) In all cases, the final concentration of DMSO was 5% (v/v). After incubation for 15 min at 37 °C, the enzyme reaction was terminated by addition of 100 µM Biomol green reagent, and the absorbance was measured at 650 nm after 5 min. All of the experiments were run in duplicate. Residual activities were calculated with respect to control assays without the tested compounds, but with the 5% DMSO carrier.\n(§3) The published kinase inhibitor set compounds were evaluated for inhibition of MurC, D and F ligases from E. coli using the Malachite green assay, which detects orthophosphate generated during enzymatic reactions. To avoid non-specific inhibition due to aggregate formation, all of the compounds were tested in the presence of detergent (0.005% Triton-X114). The data are presented as the residual activities of these Mur ligases in the presence of 100 µM of each test compound (Supporting Information Table S1). […] Additionally, regarding the data of profiled compounds in large panels of human kinase assays[41]"}, "E. coli MurD": {"target": "E. coli MurD (Escherichia coli, UniProt P14900)", "sequence (P14900 whole entry)": "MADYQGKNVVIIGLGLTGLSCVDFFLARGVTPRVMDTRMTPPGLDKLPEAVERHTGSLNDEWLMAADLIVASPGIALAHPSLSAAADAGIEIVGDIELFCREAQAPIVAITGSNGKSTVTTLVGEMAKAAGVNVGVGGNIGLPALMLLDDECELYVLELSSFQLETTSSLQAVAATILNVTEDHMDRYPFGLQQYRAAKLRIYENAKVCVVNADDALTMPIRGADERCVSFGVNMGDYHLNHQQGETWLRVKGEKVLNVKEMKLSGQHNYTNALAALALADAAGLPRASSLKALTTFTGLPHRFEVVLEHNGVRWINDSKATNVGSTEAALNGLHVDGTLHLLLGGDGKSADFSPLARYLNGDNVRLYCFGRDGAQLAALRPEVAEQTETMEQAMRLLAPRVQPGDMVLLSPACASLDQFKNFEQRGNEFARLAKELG", "assay": "biochemical", "conditions": "for remaining activity at 100 µM: 0.25 h, Table S1, PKIS screening, read-out: RA [%] at 100 µM MurD", "protocol": "as §1, §2\nThe published kinase inhibitor set compounds were evaluated for inhibition of MurC, D and F ligases from E. coli using the Malachite green assay, which detects orthophosphate generated during enzymatic reactions. To avoid non-specific inhibition due to aggregate formation, all of the compounds were tested in the presence of detergent (0.005% Triton-X114). The data are presented as the residual activities of these Mur ligases in the presence of 100 µM of each test compound (Supporting Information Table S1)."}, "E. coli MurF": {"target": "E. coli MurF (Escherichia coli, UniProt P11880)", "sequence (P11880 whole entry)": "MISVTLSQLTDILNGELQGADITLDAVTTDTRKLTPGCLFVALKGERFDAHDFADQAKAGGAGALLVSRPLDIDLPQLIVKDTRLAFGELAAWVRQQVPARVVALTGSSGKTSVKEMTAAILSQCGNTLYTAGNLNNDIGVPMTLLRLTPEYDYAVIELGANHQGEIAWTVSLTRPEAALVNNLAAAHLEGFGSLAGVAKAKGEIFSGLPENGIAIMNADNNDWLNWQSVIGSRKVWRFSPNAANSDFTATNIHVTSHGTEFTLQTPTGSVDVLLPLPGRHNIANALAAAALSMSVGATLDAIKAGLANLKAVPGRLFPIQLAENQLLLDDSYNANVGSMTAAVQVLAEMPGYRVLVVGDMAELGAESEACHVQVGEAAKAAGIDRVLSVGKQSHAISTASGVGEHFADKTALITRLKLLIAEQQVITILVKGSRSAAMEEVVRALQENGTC", "assay": "biochemical", "conditions": "0.25 h, Table S1, PKIS screening; read-out: RA [%] at 100 µM MurF", "protocol": "as §1, §2, §3"}, "[1]": {"conditions": "Table S1, PKIS screening, read-out: RA [%] at 100 µM MurC"}, "[2]": {"conditions": "read-out: RA [%] at 100 µM MurC, Table S1, PKIS screening"}}, "note": "Like-named read-outs stand apart in the source and are kept apart here."}
{"molecule": "NC(=O)c1cc(-c2ccc(F)cc2)cc(-c2ccncc2)c1N", "note": "[GSK620503A]", "values": [{"measurement": "remaining activity at 100 µM", "setting": "E. coli MurC; [1]", "result": 94, "unit": "%"}, {"measurement": "remaining activity at 100 µM", "setting": "E. coli MurD", "result": 71, "unit": "%"}, {"measurement": "remaining activity at 100 µM", "setting": "E. coli MurF", "result": 80, "unit": "%"}]}
{"molecule": "NC(=O)c1cc(-c2ccncc2)cc(-c2ccccc2)c1N", "note": "[GSK625137A]", "values": [{"measurement": "remaining activity at 100 µM", "setting": "E. coli MurC; [1]", "result": 65, "unit": "%"}, {"measurement": "remaining activity at 100 µM", "setting": "E. coli MurD", "result": 95, "unit": "%"}, {"measurement": "remaining activity at 100 µM", "setting": "E. coli MurF", "result": 84, "unit": "%"}]}
{"molecule": "CNC(=O)c1cc(-c2ccc(F)cc2)cc(-c2ccc(S(=O)(=O)N3CCCC3)cc2)c1N", "note": "[GSK635416A]", "values": [{"measurement": "remaining activity at 100 µM", "setting": "E. coli MurC; [1]", "result": 71, "unit": "%"}, {"measurement": "remaining activity at 100 µM", "setting": "E. coli MurD", "result": 43, "unit": "%"}, {"measurement": "remaining activity at 100 µM", "setting": "E. coli MurF", "result": 88, "unit": "%"}]}
{"molecule": "COc1c(C(N)=O)cc(-c2ccc(Cl)cc2)cc1-c1ccc(S(N)(=O)=O)cc1", "note": "[GSK711701A]", "values": [{"measurement": "remaining activity at 100 µM", "setting": "E. coli MurC; [1]", "result": 100, "unit": "%"}, {"measurement": "remaining activity at 100 µM", "setting": "E. coli MurD", "result": 99, "unit": "%"}, {"measurement": "remaining activity at 100 µM", "setting": "E. coli MurF", "result": 93, "unit": "%"}]}
{"molecule": "CCn1cc(-c2ccnc3[nH]ccc23)c(-c2cccc(NC(=O)Nc3ccc(OCc4ccccc4)cc3)c2)n1", "note": "[GSK718429A]", "values": [{"measurement": "remaining activity at 100 µM", "setting": "E. coli MurC; [1]", "result": 94, "unit": "%"}, {"measurement": "remaining activity at 100 µM", "setting": "E. coli MurD", "result": 83, "unit": "%"}, {"measurement": "remaining activity at 100 µM", "setting": "E. coli MurF", "result": 99, "unit": "%"}]}
{"molecule": "CCn1c(-c2nonc2N)nc2c(C#CC(C)(C)O)nc(OC[C@@H](N)c3ccccc3)cc21", "note": "[GSK938890A]", "values": [{"measurement": "remaining activity at 100 µM", "setting": "E. coli MurC; [1]", "result": 76, "unit": "%"}, {"measurement": "remaining activity at 100 µM", "setting": "E. coli MurD", "result": 80, "unit": "%"}, {"measurement": "remaining activity at 100 µM", "setting": "E. coli MurF", "result": 92, "unit": "%"}]}
{"molecule": "CCn1c(-c2nonc2N)nc2c(C#CC(C)(C)O)nc(OCCNC)cc21", "note": "[GSK949675A]", "values": [{"measurement": "remaining activity at 100 µM", "setting": "E. coli MurC; [1]", "result": 73, "unit": "%"}, {"measurement": "remaining activity at 100 µM", "setting": "E. coli MurD", "result": 85, "unit": "%"}, {"measurement": "remaining activity at 100 µM", "setting": "E. coli MurF", "result": 74, "unit": "%"}]}
{"molecule": "NS(=O)(=O)c1cccc(-c2cc3ccncc3cc2OCc2ccccc2)c1", "note": "[GSK980961A]", "values": [{"measurement": "remaining activity at 100 µM", "setting": "E. coli MurC; [1]", "result": 80, "unit": "%"}, {"measurement": "remaining activity at 100 µM", "setting": "E. coli MurD", "result": 86, "unit": "%"}, {"measurement": "remaining activity at 100 µM", "setting": "E. coli MurF", "result": 66, "unit": "%"}]}
{"molecule": "NC(=O)c1sc(-n2cnc3ccccc32)cc1OCc1ccccc1Br", "note": "[GSK1023156A]", "values": [{"measurement": "remaining activity at 100 µM", "setting": "E. coli MurC; [1]", "result": 55, "unit": "%"}, {"measurement": "remaining activity at 100 µM", "setting": "E. coli MurD", "result": 82, "unit": "%"}, {"measurement": "remaining activity at 100 µM", "setting": "E. coli MurF", "result": 84, "unit": "%"}]}
{"molecule": "COC(=O)c1sc(-n2cnc3cc(OC)c(OC)cc32)cc1OCc1ccccc1C(F)(F)F", "note": "[GSK1030058A]", "values": [{"measurement": "remaining activity at 100 µM", "setting": "E. coli MurC; [1]", "result": 32, "unit": "%"}, {"measurement": "remaining activity at 100 µM", "setting": "E. coli MurD", "result": 78, "unit": "%"}, {"measurement": "remaining activity at 100 µM", "setting": "E. coli MurF", "result": 55, "unit": "%"}]}
{"molecule": "COc1cc2ncn(-c3cc(OCc4ccccc4C(F)(F)F)c(C(=O)N(C)C)s3)c2cc1OC", "note": "[GSK1030062A]", "values": [{"measurement": "remaining activity at 100 µM", "setting": "E. coli MurC; [1]", "result": 68, "unit": "%"}, {"measurement": "remaining activity at 100 µM", "setting": "E. coli MurD", "result": 76, "unit": "%"}, {"measurement": "remaining activity at 100 µM", "setting": "E. coli MurF", "result": 63, "unit": "%"}]}
{"molecule": "COc1cc(N2CCN(C(C)C)CC2)ccc1Nc1nc(Nc2ccc(F)cc2C(N)=O)c2cc[nH]c2n1", "note": "[GSK1220512A]", "values": [{"measurement": "remaining activity at 100 µM", "setting": "E. coli MurC; [2]", "result": 2, "unit": "%"}, {"measurement": "remaining activity at 100 µM", "setting": "E. coli MurD", "result": 48, "unit": "%"}, {"measurement": "remaining activity at 100 µM", "setting": "E. coli MurF", "result": 54, "unit": "%"}]}
{"molecule": "CCCN1CCC(c2ccc(Nc3nc(Nc4cc(F)ccc4C(N)=O)c4cc[nH]c4n3)c(OC)c2)CC1", "note": "[GSK1326255A]", "values": [{"measurement": "remaining activity at 100 µM", "setting": "E. coli MurC; [1]", "result": 0, "unit": "%"}, {"measurement": "remaining activity at 100 µM", "setting": "E. coli MurD", "result": 9, "unit": "%"}, {"measurement": "IC50", "setting": "E. coli MurD; printed in the RA cell of Table S1, read-out: IC50 MurD", "result": 39, "unit": "µM"}, {"measurement": "remaining activity at 100 µM", "setting": "E. coli MurF", "result": 4, "unit": "%"}]}
{"molecule": "COc1cc(N2CCN(C(C)C)CC2)ccc1Nc1nc(Nc2ccc(F)cc2C(=O)NC[C@@H](O)CO)c2cc[nH]c2n1", "note": "[GSK1392956A]", "values": [{"measurement": "remaining activity at 100 µM", "setting": "E. coli MurC; [1]", "result": 65, "unit": "%"}, {"measurement": "remaining activity at 100 µM", "setting": "E. coli MurD", "result": 76, "unit": "%"}, {"measurement": "remaining activity at 100 µM", "setting": "E. coli MurF", "result": 90, "unit": "%"}]}
{"molecule": "CCCN1CCC(Oc2cc(Nc3nc(Nc4cccc(F)c4C(N)=O)c4cc[nH]c4n3)c(OC)cc2Cl)CC1", "note": "[GSK1713088A]", "values": [{"measurement": "remaining activity at 100 µM", "setting": "E. coli MurC; [1]", "result": 59, "unit": "%"}, {"measurement": "remaining activity at 100 µM", "setting": "E. coli MurD", "result": 54, "unit": "%"}, {"measurement": "remaining activity at 100 µM", "setting": "E. coli MurF", "result": 85, "unit": "%"}]}
{"molecule": "COc1cc2c(cc1Nc1nc(Nc3cccc(F)c3C(N)=O)c3cc[nH]c3n1)N(C(=O)CN1CCN(C(C)C)CC1)CC2", "note": "[GSK1751853A]", "values": [{"measurement": "remaining activity at 100 µM", "setting": "E. coli MurC; [1]", "result": 55, "unit": "%"}, {"measurement": "remaining activity at 100 µM", "setting": "E. coli MurD", "result": 74, "unit": "%"}, {"measurement": "remaining activity at 100 µM", "setting": "E. coli MurF", "result": 89, "unit": "%"}]}
{"molecule": "COc1cc(N2CCN(C(C)C)CC2)ccc1Nc1nc(Nc2cccc(F)c2C(=O)O)c2cc[nH]c2n1", "note": "[GSK1819799A]", "values": [{"measurement": "remaining activity at 100 µM", "setting": "E. coli MurC; [1]", "result": 0, "unit": "%"}, {"measurement": "remaining activity at 100 µM", "setting": "E. coli MurD", "result": 37, "unit": "%"}, {"measurement": "remaining activity at 100 µM", "setting": "E. coli MurF", "result": 39, "unit": "%"}]}
{"molecule": "COc1cc2c(cc1Nc1nc(N3CCc4ccccc43)c3cc[nH]c3n1)N(C(=O)CN(C)C)CC2", "note": "[GSK2186269A]", "values": [{"measurement": "remaining activity at 100 µM", "setting": "E. coli MurC; [1]", "result": 23, "unit": "%"}, {"measurement": "remaining activity at 100 µM", "setting": "E. coli MurD", "result": 100, "unit": "%"}, {"measurement": "remaining activity at 100 µM", "setting": "E. coli MurF", "result": 26, "unit": "%"}]}
{"molecule": "COc1cc(C)c(N(C)C(=O)CN(C)C)cc1Nc1nc(Nc2cccc(F)c2C(N)=O)c2cc[nH]c2n1", "note": "[GSK2219385A]", "values": [{"measurement": "remaining activity at 100 µM", "setting": "E. coli MurC; [2]", "result": 73, "unit": "%"}, {"measurement": "remaining activity at 100 µM", "setting": "E. coli MurD", "result": 93, "unit": "%"}, {"measurement": "remaining activity at 100 µM", "setting": "E. coli MurF", "result": 93, "unit": "%"}]}
